The record followed here is patent publication US11319299B2, “Substituted carboxamides as inhibitors of WDR5 protein-protein binding” (PROPELLON THERAPEUTICS INC., priority 2016, dated 2022).

Like-named read-outs stand apart in the source and are kept apart here.

The assay has as its target WDR5 (Homo sapiens (Human), UniProt P61964). Briefly: Surface Plasmon Resonance (SPR) assay, KD and residence time. The assay is classed as binding. The following applies: read-out: WDR5 binding affinity (KD). As for the experimental part:
(i) Surface Plasmon Resonance (SPR) Assay
The lifetime of a drug on its target is determined by two rate constants: the association rate constant (kon) and the dissociation rate constant (koff). In principle, the lifetime of the binary drug—target complex is thus extended by a rapid rate of drug binding and/or a slow rate of drug—target complex dissociation. The in vivo lifetime of a drug-target complex is most critically dependent on the value of the koff [Nat. Rev. Drug Discov. […] Drug Discov. […] Drug-target residence time is defined as the reciprocal of koff (τ=1/koff), making the residence time a parameter that is easily measured by routine in vitro assay methods.

[1] abbreviates: surface plasmon resonance (SPR).
Setting [2] is: surface plasmon resonance (SPR) assay.

For the molecule “4-(difluoromethyl)-N-[4-fluoro-5-[2-[(2R)-2-methylmorpholin-4-yl]pyrimidin-5-yl]-2-[(3S,5R)-3,4,5-trimethylpiperazin-1-yl]phenyl]-1-methyl-6-oxopyridine-3-carboxamide [Example 481]”, the dissociation constant (Kd) – broadly, the constant that tells how readily two partners part at equilibrium – under setting [1] came to 4.89 nM. Turning to “4-(difluoromethyl)-N-[4-fluoro-5-[6-(oxan-4-yloxy)pyridin-3-yl]-2-[(3R)-3,4-dimethylpiperazin-1-yl]phenyl]-6-oxo-1H-pyridine-3-carboxamide [Example 403]”, the Kd under setting [1] stood at 1.16 nM. Take `C[C@@H]1CN(c2cc(F)c(C3=CC4CCC(C3)N4C(=O)OC(C)(C)C)cc2NC(=O)c2cn(C)c(=O)cc2C(F)(F)F)C[C@H](C)N1C` (mixture of isomers) [Example 327, tert-butyl 3-[2-fluoro-5-[[-methyl-6-oxo-4-(trifluoromethyl)pyridine-3-carbonyl]amino]-4-[(3R,5S)-3,4,5-trimethylpiperazin-1-yl]phenyl]-8-azabicyclo[3.2.1]oct-2-ene-8-carboxylate]: the Kd under setting [2] is 123 nM. On the same count and under the same terms, for `C[C@H]1CN(c2cc(F)c(-c3cnc(N4CCN(C)CC4)nc3)cc2NC(=O)c2ccc(F)cc2C(F)(F)F)C[C@H](C)N1C` (racemic) [Example 382, 4-fluoro-N-[4-fluoro-5-[2-(4-methylpiperazin-1-yl)pyrimidin-5-yl]-2-[(3R,5R)-3,4,5-trimethylpiperazin-1-yl]phenyl]-2-(trifluoromethyl)benzamide] the value was 117 nM.

Consider `C[C@H]1CN(c2cc(F)c(-c3cnc(N4CCOCC4)nc3)cc2NC(=O)c2ccc(F)cc2C(F)(F)F)C[C@H](C)N1C` (racemic) [Example 387, 4-fluoro-N-[4-fluoro-5-(2-morpholin-4-ylpyrimidin-5-yl)-2-[(3R,5R)-3,4,5-trimethylpiperazin-1-yl]phenyl]-2-(trifluoromethyl)benzamide], for which the Kd under setting [2] was determined as 83.5 nM.

As for `C[C@@H]1CN(c2ccc(-c3cc(NC(=O)c4cn(C)c(=O)cc4C(F)(F)F)c(N4CCN(C)[C@@H](C)C4)cc3F)cn2)C[C@H](C)O1` (racemic) [Example 421, N-[4-fluoro-5-[6-[(2R,6S)-2,6-dimethylmorpholin-4-yl]pyridin-3-yl]-2-[(3R)-3,4-dimethylpiperazin-1-yl]phenyl]-1-methyl-6-oxo-4-(trifluoromethyl)pyridine-3-carboxamide], the Kd under setting [1] turned out to be 1.96 nM. Still for that read-out and setting: for `C[C@@H]1CN(c2ncc(-c3cc(NC(=O)c4cn(C)c(=O)cc4C(F)(F)F)c(N4CC[C@@H](N(C)C)C4)cc3F)cn2)C[C@H](C)O1` (racemic) [Example 426, N-[4-fluoro-2-[(3S)-3-(dimethylamino)pyrrolidin-1-yl]-5-[2-[(2R,6S)-2,6-dimethylmorpholin-4-yl]pyrimidin-5-yl]phenyl]-1-methyl-6-oxo-4-(trifluoromethyl)pyridine-3-carboxamide] the value was 10.9 nM; for `CCN(C)[C@@H]1CCN(c2cc(F)c(-c3cnc(N4C[C@@H](C)O[C@@H](C)C4)nc3)cc2NC(=O)c2cn(C)c(=O)cc2C(F)(F)F)C1` (racemic) [Example 427, N-[4-fluoro-5-[2-[(2R,6S)-2,6-dimethylmorpholin-4-yl]pyrimidin-5-yl]-2-[(3S)-3-[ethyl(methyl)amino]pyrrolidin-1-yl]phenyl]-1-methyl-6-oxo-4-(trifluoromethyl)pyridine-3-carboxamide], 5.59 nM; for `C[C@@H]1CN(c2cc(F)c(-c3ccc(N4CCO[C@@H](C)C4)nc3)cc2NC(=O)c2c[nH]c(=O)cc2C(F)(F)F)C[C@H](C)N1C` (racemic) [Example 434, N-[4-fluoro-5-[6-[(2R)-2-methylmorpholin-4-yl]pyridin-3-yl]-2-[(3S,5R)-3,4,5-trimethylpiperazin-1-yl]phenyl]-6-oxo-4-(trifluoromethyl)-1H-pyridine-3-carboxamide], 0.617 nM. On the same count and under the same terms, for `C[C@@H]1CN(c2ncc(-c3cc(NC(=O)c4cn(C)c(=O)cc4C(F)F)c(N4CCN(C)[C@@H](C)C4)cc3F)cn2)CCO1` (racemic) [Example 460, 4-(difluoromethyl)-N-[4-fluoro-2-[(3S)-3,4-dimethylpiperazin-1-yl]-5-[2-[(2R)-2-methylmorpholin-4-yl]pyrimidin-5-yl]phenyl]-1-methyl-6-oxopyridine-3-carboxamide] the value was 3.43 nM.

With `C[C@H]1CN(c2cc(F)c(-c3cnc(N4CCOC[C@@H]4C)nc3)cc2NC(=O)c2cn(C)c(=O)cc2C(F)(F)F)CCN1C` (racemic) [Example 608, N-[4-fluoro-2-[(3R)-3,4-dimethylpiperazin-1-yl]-5-[2-[(3R)-3-methylmorpholin-4-yl]pyrimidin-5-yl]phenyl]-1-methyl-6-oxo-4-(trifluoromethyl)pyridine-3-carboxamide], under setting [1], the Kd worked out at 0.977 nM. On the same count and under the same terms, as for `C[C@@H]1CN(c2nccc(-c3cc(NC(=O)c4c[nH]c(=O)cc4C(F)(F)F)c(N4C[C@@H](C)N(C)[C@@H](C)C4)cc3F)n2)CCO1` (racemic) [Example 691, N-[4-fluoro-5-[2-[(2R)-2-methylmorpholin-4-yl]pyrimidin-4-yl]-2-[(3R,5S)-3,4,5-trimethylpiperazin-1-yl]phenyl]-6-oxo-4-(trifluoromethyl)-H-pyridine-3-carboxamide], the figure is 1.31 nM; as for `C[C@@H]1CN(c2cc(F)c(-c3ccnc(N4CCO[C@@H](C)C4)n3)cc2NC(=O)c2cn(C)c(=O)cc2C(F)(F)F)C[C@H](C)N1C` (racemic) [Example 694, N-[4-fluoro-5-[2-[(2R)-2-methylmorpholin-4-yl]pyrimidin-4-yl]-2-[(3S,5R)-3,4,5-trimethylpiperazin-1-yl]phenyl]-1-methyl-6-oxo-4-(trifluoromethyl)pyridine-3-carboxamide], 4.92 nM. For the molecule `CC1CN(c2cc(F)c(-c3cnc(N4CCOCC4)nc3)cc2NC(=O)c2ccccc2)CCN1C` (stereo in doubt) [Example 78, N-[4-fluoro-5-(2-morpholin-4-ylpyrimidin-5-yl)-2-[(3R)-3,4-dimethylpiperazin-1-yl]phenyl]benzamide], the Kd under setting [2] came out at 17.9 nM. On the same count and under the same terms, as for `CC1CN(c2cc(F)c(-c3cnc(N4CCOCC4)nc3)cc2NC(=O)c2ccco2)CCN1C` (stereo in doubt) [Example 79, N-[4-fluoro-5-(2-morpholin-4-ylpyrimidin-5-yl)-2-[(3R)-3,4-dimethylpiperazin-1-yl]phenyl]furan-2-carboxamide], the figure is greater than 200 nM; as for `CC1CN(c2cc(F)c(-c3cnc(N4CCOCC4)nc3)cc2NC(=O)c2cccnc2)CCN1C` (stereo in doubt) [Example 80, N-[4-fluoro-5-(2-morpholin-4-ylpyrimidin-5-yl)-2-[(3R)-3,4-dimethylpiperazin-1-yl]phenyl]pyridine-3-carboxamide], greater than 200 nM; as for `CC1CN(c2cc(Cl)c(-c3cnc(N4CCOCC4)nc3)cc2NC(=O)c2c[nH]c(=O)cc2C(F)(F)F)CCN1C` (stereo in doubt) [Example 81, N-[4-chloro-5-(2-morpholin-4-ylpyrimidin-5-yl)-2-[(3R)-3,4-dimethylpiperazin-1-yl]phenyl]-6-oxo-4-(trifluoromethyl)-1H-pyridine-3-carboxamide], 11.1 nM. On the same count and under the same terms, for `CC1CN(c2cc(F)c(-c3cnc(N4CCOCC4)nc3)cc2NC(=O)c2nn(C)c3ccccc23)CCN1C` (stereo in doubt) [Example 116, N-[4-fluoro-5-(2-morpholin-4-ylpyrimidin-5-yl)-2-[(3R)-3,4-dimethylpiperazin-1-yl]phenyl]-1-methylindazole-3-carboxamide] the value was 76.8 nM.
